{"source": "paper PMC5104457", "about": "“ATP-Competitive MLKL Binders Have No Functional Impact on Necroptosis” (PLoS ONE, 2016)", "key": {"RIPK1 kinase domain": {"target": "T1, RIPK1 kinase domain (Homo sapiens, UniProt Q13546)", "T1 construct": "purchased DiscoverX", "T1 sequence (Q13546 17-289 limits assumed)": "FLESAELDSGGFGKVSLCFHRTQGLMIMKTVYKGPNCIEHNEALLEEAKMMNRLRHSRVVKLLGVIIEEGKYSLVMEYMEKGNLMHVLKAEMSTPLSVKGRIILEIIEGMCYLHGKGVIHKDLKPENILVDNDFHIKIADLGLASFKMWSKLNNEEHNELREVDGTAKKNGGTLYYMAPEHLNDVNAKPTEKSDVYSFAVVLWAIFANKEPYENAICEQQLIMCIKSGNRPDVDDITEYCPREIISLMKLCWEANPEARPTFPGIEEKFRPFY", "assay": "ATP-competitive probe displacement assay, RIPK1", "type": "binding", "conditions": "average of duplicates", "protocol": "Compound binding constants (KDs) were determined at DiscoverX using their KINOMEscan assay platform. This competition binding assay was previously described in Karaman et al. (2008)[18]. Briefly, full length MLKL was expressed in HEK-293 cells as a fusion with an NFκB DNA binding domain and subsequently tagged with a qPCR detection amplicon via interaction with NFκB. […] Twenty microliters of binding reactions were carried out in 384-well polypropylene plates for 1 hour at room temperature. Beads were subsequently washed and resuspended in elution buffer for 30 minutes at room temperature with shaking. The concentration of MLKL in the eluates was measured by qPCR and compound binding constants were calculated using a standard dose-response curve.\nA similar approach was used to measure binding affinities for RIPK1 and RIPK3 kinase domains."}, "[1]": {"target": "T2, full length His-MBP-MLKL-3 (Homo sapiens, UniProt Q8NB16)", "T2 construct": "The full length MLKL was prepared in baculovirus; made in house; host or cells: baculovirus-infected sf9 insect cells", "T2 sequence (Q8NB16 1-471)": "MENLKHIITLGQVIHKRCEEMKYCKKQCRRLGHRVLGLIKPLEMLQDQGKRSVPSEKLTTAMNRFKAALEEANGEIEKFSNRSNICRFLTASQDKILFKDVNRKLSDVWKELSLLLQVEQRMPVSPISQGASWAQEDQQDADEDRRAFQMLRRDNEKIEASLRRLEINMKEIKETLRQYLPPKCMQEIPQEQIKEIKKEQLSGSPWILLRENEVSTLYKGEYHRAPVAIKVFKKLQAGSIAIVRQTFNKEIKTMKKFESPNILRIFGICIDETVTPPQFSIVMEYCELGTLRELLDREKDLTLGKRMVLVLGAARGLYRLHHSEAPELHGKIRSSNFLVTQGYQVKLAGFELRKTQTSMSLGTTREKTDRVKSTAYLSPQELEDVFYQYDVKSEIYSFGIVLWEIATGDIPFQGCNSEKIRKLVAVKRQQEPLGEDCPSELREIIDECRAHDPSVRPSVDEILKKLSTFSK", "assay": "Second harmonic generation (SHG) conformational assay, full length MLKL", "conditions": "10 μM compound, 20 minutes, mean ± SE", "protocol": "The full length MLKL was prepared in baculovirus using a bacmid DNA which was modified to include a Tev cleavable N-terminal His6 maltose binding protein (His-MBP) tag. His-MBP-MLKL-3 was expressed in baculovirus-infected sf9 insect cells grown in SF-900 II serum-free medium (Invitrogen). Cells were harvested by centrifugation 48 hours post-infection. The cells were resuspended in lysis buffer (50mM TRIS pH 8.0, 500mM NaCl, 10% glycerol, 1mM DTT and Roche EDTA-free protease inhibitor cocktail) and were lysed using a microfluidizer. The lysate was clarified by centrifugation at 20,000 x g for 1 hour at 4°C and the His-MBP-MLKL-3 was captured by batch binding to Nickel NTA resin overnight at 4°C. The resin was washed with buffer A (25mM TRIS pH 8.0, 250mM NaCl, 10% glycerol, 1mM DTT) and loaded into an XK column and washed until no non-specific unbound protein was detected. His-MBP-MLKL3 was eluted from the column using buffer A supplemented with 250mM imidazole pH 8.0 and analyzed by SDS-PAGE. […]\nExperiments were performed on a Biodesy Delta System. […] The fundamental is directed to an arrangement of prisms integrated with the custom, glass-bottomed Biodesy Delta Read Plates, where it undergoes total internal reflection (TIR) to generate the evanescent field at the glass-lipid bilayer interface. […]"}}}
{"smiles": "Nc1nccnc1C(=O)O[C@@H](C(=O)Nc1ccc(F)cc1)c1ccccc1", "note": "[cpd 4, 3-Amino-pyrazine-2-carboxylic acid (R)-(4-fluorophenylcarbamoyl)-phenyl-methyl ester]", "values": [{"measurement": "Kd", "setting": "RIPK1 kinase domain", "result": "> 30", "unit": "µM"}]}
{"smiles": "CN(c1ccc(NC(=O)Nc2ccc(OC(F)(F)F)cc2)cc1)c1ccnc(Nc2cccc(S(N)(=O)=O)c2)n1", "note": "[cpd 1, reference compound]", "values": [{"measurement": "% change in SHG intensity, Full-length HisMBP-MLKL-3", "setting": "[1]", "result": "25.9 ± 1.6", "unit": "%"}]}
